Experimental data published in ChEMBL document CHEMBL4359811, “Development of Potent and Selective Pyrazolopyrimidine IRAK4 Inhibitors” (J Med Chem, 2019).
≈ marks a conversion by molar mass, not a printed value.

Key:
[1] = biological target: T1, Interleukin-1 receptor-associated kinase 4 (Homo sapiens, UniProt Q9NWZ3); assay: Inhibition of IRAK4 in human THP1-Xblue-MD2-CD14 cells assessed as reduction in LPS-induced NFkappaB transcription by measuring alkaline phosphatase level preincubated for 1 hr followed by LPS stimulation and measured after 20 hrs by quanti-blue reagent based reporter assay
T1 sequence (Q9NWZ3 whole entry): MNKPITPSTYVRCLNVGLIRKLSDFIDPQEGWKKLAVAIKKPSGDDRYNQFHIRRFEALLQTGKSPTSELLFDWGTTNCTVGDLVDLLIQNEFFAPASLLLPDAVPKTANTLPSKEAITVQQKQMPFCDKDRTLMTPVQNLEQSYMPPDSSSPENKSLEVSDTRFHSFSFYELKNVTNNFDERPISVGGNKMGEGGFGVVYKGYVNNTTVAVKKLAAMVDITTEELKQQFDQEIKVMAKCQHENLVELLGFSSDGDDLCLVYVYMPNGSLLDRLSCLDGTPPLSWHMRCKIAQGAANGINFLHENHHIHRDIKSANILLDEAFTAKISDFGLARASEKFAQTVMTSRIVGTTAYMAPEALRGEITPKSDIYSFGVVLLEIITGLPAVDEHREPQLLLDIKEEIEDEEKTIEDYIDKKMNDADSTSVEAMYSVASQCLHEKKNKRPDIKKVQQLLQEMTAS

[2] = Kinetic aqueous solubility of the compound in PBS buffer at pH 7.4 incubated for 24 hrs under shaking condition by LC-CLND assay; assay type: physicochemical; settings: PBS buffer, pH 7.4; read-out: Kinetic_solubility
[3] = biological target: T1, Interleukin-1 receptor-associated kinase 4; assay: Inhibition of human recombinant full length His6-tagged IRAK4 expressed in baculovirus expression system using H-KKARFSRFAGSSPSQSSMVAR as substrate incubated for 90 mins by fluorescence polarisation assay
[4] = Apparent permeability from apical to basolateral side in MDCK cells at 10 uM incubated for 180 mins and measured up to 180 min by LC-MS/MS analysis; assay type: ADME, cell-based, Canis lupus familiaris; settings: dog
[5] = biological target: T1, Interleukin-1 receptor-associated kinase 4; assay: Inhibition of recombinant IRAK4 (unknown origin) using KKARFSRFAGSSPSQSSMVAR as substrate in presence of [gamma33P]-ATP by liquid scintillation counting method
[6] = Blood clearance in mouse at 1 mg/kg, iv; assay type: ADME, organism-based; settings: whole blood
[7] = Protein binding in human plasma at 5 uM incubated for 4 hrs by LC-MS/MS analysis; assay type: ADME, cell-free; settings: read-out: PPB (converted)
[8] = Oral bioavailability in mouse at 5 mg/kg; assay type: ADME, organism-based; settings: in vivo
[9] = biological target: Interleukin-1 receptor-associated kinase 1 (Homo sapiens, UniProt P51617); assay: Inhibition of human recombinant full length N-terminal His6-tagged IRAK1 (Argl94 to Ser712 residues) expressed in insect cells using H-KKARFSRFAGSSPSQSSMVAR as substrate incubated for 60 mins by fluorescence polarisation assay
[10] = Protein binding in mouse plasma at 5 uM incubated for 4 hrs by LC-MS/MS analysis; assay type: ADME, cell-free; settings: read-out: PPB (converted)
[11] = Cmax in mouse at 5 mg/kg, po; assay type: ADME, organism-based; parameters: dose 5 mg/kg, route oral; settings: in vivo
[12] = Volume of distribution at steady state in mouse at 1 mg/kg, iv; assay type: ADME, organism-based; settings: in vivo, read-out: Vdss
[13] = AUC (infinity) in mouse at 5 mg/kg, po; assay type: ADME, organism-based; parameters: dose 5 mg/kg, route oral, time infinity; settings: in vivo
[14] = biological target: T2, Interleukin-1 receptor-associated kinase 4 (Homo sapiens) (UniProt Q9NWZ3); assay: Inhibition of human recombinant full length His6-tagged IRAK4 expressed in baculovirus expression system at 1 uM relative to control
T2 sequence (whole entry): T1 sequence (Q9NWZ3 whole entry)

Homo sapiens = species: Homo sapiens; assay: Selectivity ratio, ratio of Ki for human recombinant full length N-terminal His6-tagged IRAK1 (Argl94 to Ser712 residues) expressed in insect cells to Ki for human recombinant full length His6-tagged IRAK4 expressed in baculovirus expression system

Sequence of Interleukin-1 receptor-associated kinase 1 (P51617 whole entry): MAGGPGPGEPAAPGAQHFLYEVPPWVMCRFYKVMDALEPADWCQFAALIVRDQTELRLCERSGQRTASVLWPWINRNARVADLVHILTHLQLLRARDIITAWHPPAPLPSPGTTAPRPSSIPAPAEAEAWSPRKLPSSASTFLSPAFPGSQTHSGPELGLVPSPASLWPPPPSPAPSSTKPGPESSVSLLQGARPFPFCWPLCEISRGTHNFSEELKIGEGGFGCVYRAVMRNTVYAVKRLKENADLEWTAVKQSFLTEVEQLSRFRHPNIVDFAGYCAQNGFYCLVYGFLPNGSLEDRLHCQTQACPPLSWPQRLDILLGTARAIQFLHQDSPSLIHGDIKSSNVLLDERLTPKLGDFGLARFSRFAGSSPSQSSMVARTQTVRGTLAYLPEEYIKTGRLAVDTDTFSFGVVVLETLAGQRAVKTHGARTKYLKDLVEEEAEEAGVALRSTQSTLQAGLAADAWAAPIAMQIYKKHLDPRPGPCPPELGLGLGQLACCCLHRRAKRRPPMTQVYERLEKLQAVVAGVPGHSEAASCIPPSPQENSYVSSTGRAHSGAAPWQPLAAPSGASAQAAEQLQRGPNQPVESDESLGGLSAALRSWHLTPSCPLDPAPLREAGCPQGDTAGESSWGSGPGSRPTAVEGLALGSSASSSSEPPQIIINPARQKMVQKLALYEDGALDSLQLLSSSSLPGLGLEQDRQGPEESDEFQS

Compound | IC50 [1] [nM] | solubility kinetic at 24 h [2] [µM] | Ki [3] [nM] | Papp A→B at 3 h, 10 µM [4] [×10⁻⁶ cm/s] | Ki [9] [nM] | other results
CC(C)(O)[C@]1(C)Cc2cc(NC(=O)c3cnn4cccnc34)c(N3CCOCC3)cc2O1 | 170 | 150 (≈ 65.6 µg/mL) | 7.3 | 21 |  | 
O=C(Nc1cc2cccnc2cc1N1CCCCC1)c1cnn2cccnc12 |  |  |  |  |  | Ki [5]: 8 nM
Cn1c(N2CCOCC2)nc2cc(N3CCC(CO)CC3)c(NC(=O)c3cnn4cccnc34)cc21 | 97 |  | 1.8 | 2.4 | > 6100 | clearance [6]: 23 mL/min/kg; fraction unbound at 4 h, 5 µM [7]: 0.12; bioavailability [8]: 3%; fraction unbound at 4 h, 5 µM [10]: 0.05; Cmax ([11]; read-out: Cmax): 200 nM; Vd [12]: 0.4 L/kg; AUC(0-inf) [13]: 0.5 µM·h
CC1(C)Cc2cc(NC(=O)c3cnn4cccnc34)c(N3CCCC3)cc2O1 | 140 | 7.1 (≈ 2.68 µg/mL) |  |  |  | 
CC1(C)Cc2cc(NC(=O)c3cnn4cc(C5CC5)cnc34)c(N3CCOCC3)cc2O1 | > 20000 | 1 (≈ 0.434 µg/mL) |  |  |  | 
COc1cc2ccccc2cc1NC(=O)c1cnn2cccnc12 |  |  |  |  |  | Ki [5]: 610 nM
CC1(C)Cc2cc(NC(=O)c3cnn4cc(O)cnc34)c(N3CCOCC3)cc2O1 | 330 | 3.1 (≈ 1.27 µg/mL) | 3.2 | 14 |  | 
CN(C)c1ccc2cc(NC(=O)c3cnn4cccnc34)c(N3CCCCC3)cc2n1 | 98 |  | 26 |  | 500 | 
CNC(=O)CN1CCN(c2cc3c(cc2NC(=O)c2cnn4cccnc24)CC(C)(C)O3)CC1 | 60 | 23 (≈ 10.7 µg/mL) | 3.5 | 13 |  | 
O=C(Nc1cc2ccc(N3CCOCC3)nc2cc1N1CCCCC1)c1cnn2cccnc12 | 1300 |  | 290 |  | 4700 | 
CC1(C)Cc2cc(NC(=O)c3cnn4cc(CO)cnc34)c(N3CCOCC3)cc2O1 | 66 | 15 (≈ 6.35 µg/mL) |  | 18 |  | 

Now from value to compound, other results behind:

IC50 [1] [nM] | solubility kinetic at 24 h [2] [µM] | Ki [3] [nM] | Papp A→B at 3 h, 10 µM [4] [×10⁻⁶ cm/s] | Ki [9] [nM] | Compound | other results
56 | 110 (≈ 43.2 µg/mL) |  |  |  | CC1(C)Cc2cc(NC(=O)c3cnn4cccnc34)c(N3CCNCC3)cc2O1 | 
56 | 1 (≈ 0.489 µg/mL) |  |  |  | CC1(C)Cc2cc(NC(=O)c3cnn4cccnc34)c(N3CCC(C(O)C(F)(F)F)CC3)cc2O1 (stereo unspecified) | 
56 | 1 (≈ 0.436 µg/mL) |  | 0.7 |  | CC1(C)Cc2cc(NC(=O)c3cnn4cc(C(N)=O)cnc34)c(N3CCOCC3)cc2O1 | 
25 | 10 (≈ 4.5 µg/mL) | 2.1 | 2.6 |  | CC1(C)Cc2cc(NC(=O)c3cnn4cccnc34)c(N3CCN(CC(N)=O)CC3)cc2O1 | 
53 |  | 0.5 |  | 95 | CN(C)c1nc2cc(N3CCC(CO)CC3)c(NC(=O)c3cnn4cccnc34)cc2s1 | inhibition [14]: > 70%
38 | 95 (≈ 40 µg/mL) |  | 16 |  | CC1(C)Cc2cc(NC(=O)c3cnn4cccnc34)c(N3CCC(CO)CC3)cc2O1 | Ratio Ki (Homo sapiens): 210
60 |  | 1.2 |  | 340 | O=C(Nc1cc2oc(N3CCOCC3)nc2cc1N1CCC(CO)CC1)c1cnn2cccnc12 | 
8 |  | 0.5 | 8.4 | 24 | O=C(Nc1cc2sc(N3CCOCC3)nc2cc1N1CCC(CO)CC1)c1cnn2cccnc12 | clearance [6]: 18 mL/min/kg; fraction unbound at 4 h, 5 µM [7]: 0.02; F ([8]; BLD = below limit of detection): Bld; fraction unbound at 4 h, 5 µM [10]: 0.01; Cmax ([11]; BLD = below limit of detection): Bld; Vd [12]: 0.4 L/kg; AUC ([13]; BLD = below limit of detection): Bld
